Experimental data: patent US20040106632A1, “Salt of thiazolidinedione and its polymorphs as antidiabetic agents and method for obtaining them” (priority 2001, published 2004)

Key:
aqueous solubility = type: physicochemical
[1] = stability (solid and aqueous solution); type: physicochemical
oral absorption profile = type: in vivo; conditions: compared with the free base
[2] = hygroscopicity / solvate formation on purification; type: physicochemical

Compound	aqueous solubility (aqueous solubility; water)	stability [1]	oral absorption profile (oral absorption profile)	hygroscopicity or formation of solvates [2]	solubility (in words) (aqueous solubility; aqueous)
COc1cc(N(C)CCOc2ccc(CC3SC(=O)NC3=O)cc2)ncn1.[Na] (stereo not drawn) [Sodium Salt, sodium salt of 5-(4-{2-[(6-methoxy-pyrimydin-4-yl)-methyl-amino]-ethoxy}-benzyl)-thiazolidin-2,4-dione]	higher than 1 mg/ml	good stability	better oral absorption profile than the free base	without problems of hygroscopicity or formation of solvates	
COc1cc(N(C)CCOc2ccc(CC3SC(=O)NC3=O)cc2)ncn1 (stereo not drawn) [Compound I, 5-(4-{2-[(6-methoxypyrimydin-4-yl)-methyl-amino]-ethoxyl}-benzyl)-thiazolidin-2,4-dione]		problems of stability			problems of stability and solubility
